Reference: the supplement of paper PMC10627819

Key:
B. subtilis 168 [1] = assay: fitness (endpoint OD595 vs no drug) (fraction); higher = more growth
In short: (§1)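 Fitness was defined as the optical density at the transition into stationary phase relative to the robust mean of no-drug control wells. Values were capped at 1. Cultures were started at OD595 0.01 in 384-well plates (30 µl, or 55 µl for S. pneumoniae) in TSB, LB Lennox or CY at 37 °C. OD595 was recorded every 30 min over 14 h, with the first reading subtracted as background.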

S. aureus Newman [2] = assay: as above
In short: as §1

S. pneumoniae D39V [3] = assay: as above
In short: as §1

S. aureus DSM 20231 = assay: Bliss interaction score (quartile over a dose matrix) (fitness difference); higher = more antagonism (negative = synergy)
In short: (§2)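 Growth in each well was taken as OD595 at entry into stationary phase. Dividing by the plate's robust no-drug mean and capping at 1 gave fitness, and single-drug fitness was inferred from the combination data. The Bliss score, observed minus product-expected fitness, is summarised by quartiles over technical, biological and donor/recipient replicates.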

B. subtilis 168 [4] = assay: as above
In short: as §2

S. aureus Newman [5] = assay: as above
In short: as §2

S. pneumoniae D39V [6] = assay: as above
In short: as §2
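Wherever Bliss interaction score (quartile over a dose matrix) is given: first quartile when negative (synergy) and third quartile when positive (antagonism).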

COc1c(N2C[C@@H]3CCCN[C@@H]3C2)c(F)cc2c(=O)c(C(=O)O)cn(C3CC3)c12 [Moxifloxacin] + CN(C)c1cc(NC(=O)CNC(C)(C)C)c(O)c2c1C[C@H]1C[C@H]3[C@H](N(C)C)C(O)=C(C(N)=O)C(=O)[C@@]3(O)C(O)=C1C2=O [Tigecycline]
fitness
Details	partner 0.039 µg/mL	partner 0.078 µg/mL	partner 0.156 µg/mL	partner 0.65 µg/mL	partner 1.3 µg/mL	partner 2.6 µg/mL
B. subtilis 168 [1], first compound 0.0312 µg/mL	0.0412	0.0391	0.0455	–	–	–
B. subtilis 168 [1], first compound 0.0625 µg/mL	0.0348	0.0627	0.0465	–	–	–
B. subtilis 168 [1], first compound 0.125 µg/mL	0.0497	0.0447	0.0454	–	–	–
B. subtilis 168 [1], first compound 2 µg/mL	0.0218	0.034	0.0374	–	–	–
B. subtilis 168 [1], first compound 4 µg/mL	0.0264	0.0295	0.0361	–	–	–
B. subtilis 168 [1], first compound 8 µg/mL	0.008	0.0149	0.0156	–	–	–
S. aureus Newman [2], first compound 0.0075 µg/mL	0.764	0.761	0.773	–	–	–
S. aureus Newman [2], first compound 0.03 µg/mL	0.0791	0.0794	0.113	–	–	–
S. pneumoniae D39V [3], first compound 0.0037 µg/mL	–	–	–	0.945	0.955	0.852
S. pneumoniae D39V [3], first compound 0.005 µg/mL	–	–	–	0.931	0.929	0.909
S. pneumoniae D39V [3], first compound 0.0075 µg/mL	–	–	–	0.937	0.94	0.905
S. pneumoniae D39V [3], first compound 0.01 µg/mL	–	–	–	0.965	0.946	0.932
S. pneumoniae D39V [3], first compound 0.015 µg/mL	–	–	–	0.932	0.929	0.901
S. pneumoniae D39V [3], first compound 0.02 µg/mL	–	–	–	0.835	0.94	0.971

fitness, B. subtilis 168 [1], one replicate
Details	first compound 0.0312 µg/mL	first compound 0.0625 µg/mL	first compound 0.125 µg/mL
partner 0.125 µg/mL	0.402	0.0347	0.0119
partner 0.25 µg/mL	0.325	0.0048	0.0005
partner 0.5 µg/mL	0.372	0.0104	0.0203

Details	Bliss interaction score
B. subtilis 168 [4]	-0.0275
S. aureus DSM 20231	-0.0652
S. aureus Newman [5]	-0.0557
S. pneumoniae D39V [6]	0.0824

C/C(=C\C(=O)OCCCCCCCCC(=O)O)C[C@@H]1OC[C@H](C[C@@H]2O[C@H]2[C@@H](C)[C@H](C)O)[C@@H](O)[C@H]1O [Pseudomonic acid] + CC1=C\[C@@H](O)CC(=O)Cc2nc(co2)C(=O)N2CCC=C2C(=O)O[C@H](C(C)C)[C@H](C)/C=C/C(=O)NC\C=C\1 [Virginiamycin M1]
fitness, one replicate
Details	first compound 0.03 µg/mL	first compound 0.0313 µg/mL	first compound 0.06 µg/mL	first compound 0.0625 µg/mL	first compound 0.12 µg/mL	first compound 0.125 µg/mL
S. aureus Newman [2], partner 0.0625 µg/mL	–	0.0328	–	0.0216	–	0.0353
S. aureus Newman [2], partner 0.125 µg/mL	–	0.0308	–	0.0347	–	0.0594
S. aureus Newman [2], partner 0.25 µg/mL	–	0.0405	–	0.0352	–	0.0492
S. pneumoniae D39V [3], partner 0.15 µg/mL	≥ 1	–	≥ 1	–	0.866	–
S. pneumoniae D39V [3], partner 0.3 µg/mL	≥ 1	–	≥ 1	–	0.865	–

fitness, S. pneumoniae D39V [3]
Details	first compound 0.03 µg/mL	first compound 0.06 µg/mL	first compound 0.12 µg/mL
partner 0.5 µg/mL	0.924	0.856	0.629
partner 1 µg/mL	0.914	0.798	0.63
partner 2 µg/mL	0.952	0.844	0.647

Details	Bliss interaction score
B. subtilis 168 [4]	-0.0497
S. aureus DSM 20231	-0.0077
S. aureus Newman [5]	-0.0218
S. pneumoniae D39V [6]	0.106

C/C(=C\C(=O)OCCCCCCCCC(=O)O)C[C@@H]1OC[C@H](C[C@@H]2O[C@H]2[C@@H](C)[C@H](C)O)[C@@H](O)[C@H]1O [Pseudomonic acid] + CN1C2=CC=CC=C2N=C3C1=CC=CC3=O [Pyocyanin]
fitness, S. aureus Newman [2], one replicate
Details	first compound 0.0313 µg/mL	first compound 0.0625 µg/mL	first compound 0.125 µg/mL
partner 1.25 µg/mL	0.0664	0.0399	0.0453
partner 2.5 µg/mL	0.0672	0.0381	0.0514
partner 5 µg/mL	0.0481	0.0417	0.057

fitness, S. pneumoniae D39V [3]
Details	first compound 0.03 µg/mL	first compound 0.06 µg/mL	first compound 0.12 µg/mL
partner 0.325 µg/mL	0.955	0.849	0.611
partner 0.65 µg/mL	0.932	0.843	0.554
partner 1.3 µg/mL	–	0.55	0.395

Details	Bliss interaction score
B. subtilis 168 [4]	-0.0558
S. aureus DSM 20231	0.0163
S. aureus Newman [5]	0.0185
S. pneumoniae D39V [6]	-0.0764

C/C(=C\C(=O)OCCCCCCCCC(=O)O)C[C@@H]1OC[C@H](C[C@@H]2O[C@H]2[C@@H](C)[C@H](C)O)[C@@H](O)[C@H]1O [Pseudomonic acid] + CN(C)c1cc(NC(=O)CNC(C)(C)C)c(O)c2c1C[C@H]1C[C@H]3[C@H](N(C)C)C(O)=C(C(N)=O)C(=O)[C@@]3(O)C(O)=C1C2=O [Tigecycline]
fitness, S. aureus Newman [2], one replicate
Details	first compound 0.0313 µg/mL	first compound 0.0625 µg/mL	first compound 0.125 µg/mL
partner 0.039 µg/mL	0.0303	0.0332	0.029
partner 0.078 µg/mL	0.0326	0.0257	0.0238
partner 0.156 µg/mL	0.0698	0.0522	0.0728

fitness, S. pneumoniae D39V [3]
Details	first compound 0.03 µg/mL	first compound 0.06 µg/mL	first compound 0.12 µg/mL
partner 0.65 µg/mL	0.872	0.739	0.575
partner 1.3 µg/mL	0.923	0.747	0.612
partner 2.6 µg/mL	0.879	0.752	0.59

Details	Bliss interaction score
B. subtilis 168 [4]	0.07
S. aureus DSM 20231	0.006
S. aureus Newman [5]	-0.0182
S. pneumoniae D39V [6]	-0.124

C/C(=C\C(=O)OCCCCCCCCC(=O)O)C[C@@H]1OC[C@H](C[C@@H]2O[C@H]2[C@@H](C)[C@H](C)O)[C@@H](O)[C@H]1O [Pseudomonic acid] + CN(N=O)C(=O)N[C@@H](C=O)[C@@H](O)[C@H](O)[C@H](O)CO [Streptozotocin]
fitness, S. aureus Newman [2], one replicate
Details	first compound 0.0313 µg/mL	first compound 0.0625 µg/mL	first compound 0.125 µg/mL
partner 0.15 µg/mL	0.0359	0.0417	0.0264
partner 0.3 µg/mL	0.0204	0.0023	0.0089
partner 0.6 µg/mL	0.0135	0.0039	0.0091

fitness, S. pneumoniae D39V [3]
Details	first compound 0.03 µg/mL	first compound 0.06 µg/mL	first compound 0.12 µg/mL
partner 1.2 µg/mL	0.834	0.722	0.533
partner 2.4 µg/mL	0.885	0.718	0.538
partner 4.8 µg/mL	0.874	0.752	0.56

Details	Bliss interaction score
B. subtilis 168 [4]	0.105
S. aureus DSM 20231	-0.011
S. aureus Newman [5]	-0.0211
S. pneumoniae D39V [6]	-0.0598
